Measurements as given in PubChem BioAssay AID1259411 (Chemical Carcinogenesis Research Information System (CCRIS), 2018).
Calls of active or inactive are those of the source. The rule behind the calls is not given here.

Test system: rodent carcinogenicity bioassays, tumor incidence
Assay: CCRIS carcinogenicity studies
Outline: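 Archive of carcinogenicity, mutagenicity, tumor promotion and tumor inhibition results drawn from journals, NCI reports and other sources, expert-reviewed; covers 1985-2011 and is no longer updated.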

`C=CC(=O)OC` was tested, and the carcinogen call (Species: RAT, Strain/Sex: SPRAGUE-DAWLEY/FEMALE, Route: INHALATION, Dose: 0, 15, 45, 135 PPM 6 HR/D 5 D/WK FOR 24 MO (STUDY DURATION: 130 WK), Dose: 0, 15, 45, 135 PPM 6 HR/D 5 D/WK FOR 24 MO (STUDY DURATION: 130 WK)) was “inactive; negative” and the carcinogen call (Species: RAT, Strain/Sex: SPRAGUE-DAWLEY/MALE, Route: INHALATION, Dose: 0, 15, 45, 135 PPM 6 HR/D 5 D/WK FOR 24 MO (STUDY DURATION: 130 WK), Dose: 0, 15, 45, 135 PPM 6 HR/D 5 D/WK FOR 24 MO (STUDY DURATION: 130 WK)) was “inactive; negative”.
For `c1ccc2c(c1)CCc1cc3c4c(ccc3cc1-2)CCCC4`, the carcinogen call (Species: MOUSE, Strain/Sex: SWISS/FEMALE, Route: DERMAL, Dose: 0, 38 UG AS A 0.2% SOLUTION IN ACETONE APPLIED TO INTERSCAPULAR REGION 2/WK FOR 50 WK (STUDY DURATION: 60 WK), Tumor Site: Type of Lesion: SKIN: CARCINOMA) was “active; positive”.
In the case of `COc1cc(/C=C/C(=O)CC(=O)/C=C/c2ccc(O)c(OC)c2)ccc1O`, the carcinogen call (Species: MOUSE, Strain/Sex: B6C3F1/FEMALE, Route: ORAL, Dose: 0, 2000, 10000, 50000 PPM IN FEED FOR 104 WK (STUDY DURATION: 104 WK), Dose: 0, 2000, 10000, 50000 PPM IN FEED FOR 104 WK (STUDY DURATION: 104 WK), Tumor Site: Type of Lesion: LIVER: HEPATOCELLULAR ADENOMA, HEPATOCELLULAR ADENOMA OR CARCINOMA) is reported as “equivocal”, the carcinogen call (Species: MOUSE, Strain/Sex: B6C3F1/MALE, Route: ORAL, Dose: 0, 2000, 10000, 50000 PPM IN FEED FOR 104 WK (STUDY DURATION: 104 WK), Dose: 0, 2000, 10000, 50000 PPM IN FEED FOR 104 WK (STUDY DURATION: 104 WK), Tumor Site: Type of Lesion: LIVER: HEPATOCELLULAR ADENOMA, HEPATOCELLULAR ADENOMA OR CARCINOMA, SMALL INTESTINE: CARCINOMA) is reported as “equivocal” and the carcinogen call (Species: RAT, Strain/Sex: F344/FEMALE, Route: ORAL, Dose: 0, 2000, 10000, 50000 PPM IN FEED FOR 104 WK (STUDY DURATION: 104 WK), Dose: 0, 2000, 10000, 50000 PPM IN FEED FOR 104 WK (STUDY DURATION: 104 WK), Tumor Site: Type of Lesion: CLITORAL GLAND: ADENOMA, ADENOMA OR CARCINOMA) is reported as “equivocal”. For the same molecule, the carcinogen call (Species: RAT, Strain/Sex: F344/MALE, Route: ORAL, Dose: 0, 2000, 10000, 50000 PPM IN FEED FOR 104 WK (STUDY DURATION: 104 WK), Dose: 0, 2000, 10000, 50000 PPM IN FEED FOR 104 WK (STUDY DURATION: 104 WK)) was “inactive; negative”.
`C[C@]12CC[C@@H]3c4ccc(O)cc4CC[C@H]3[C@@H]1C[C@@H](O)C2=O` was tested, and the carcinogen call (Species: HAMSTER, Strain/Sex: SYRIAN/MALE, Route: SUBCUTANEOUS IMPLANT, Dose: 0, 20 MG IN PELLETS IMPLANTED EVERY 2.5 MO FOR 9 MO (STUDY DURATION: 9 MO), Tumor Site: Type of Lesion: KIDNEY: TUMOR) was “active; positive”.
`Cn1c([N+](=O)[O-])cnc1C1=NOC2CCCCC12` (stereo not given) was tested, and the carcinogen call (Species: MOUSE, Strain/Sex: SWISS/FEMALE, Route: INTRAPERITONEAL, Dose: 0, 80 UG/G BW 1/D FOR 30 DAYS (STUDY DURATION: LIFETIME), Tumor Site: Type of Lesion: LYMPHATIC SYSTEM: LYMPHOMA) was “active; positive”.
In the case of `C#C[C@]1(OC(C)=O)CC[C@H]2[C@@H]3CCC4=CC(=O)CC[C@@H]4[C@H]3CC[C@@]21C`, the carcinogen call (Species: MOUSE, Route: ORAL, Tumor Site: Type of Lesion: LIVER, PITUITARY GLAND) is reported as “active; positive” and the carcinogen call (Species: RAT, Route: ORAL, Tumor Site: Type of Lesion: LIVER) is reported as “active; positive”.
In the case of `Cn1cnc([N+](=O)[O-])c1Sc1ncnc2nc[nH]c12`, the carcinogen call (Species: MOUSE, Strain/Sex: B6C3F1/FEMALE, Route: ORAL, Dose: 0, 5, 20 PPM IN DIET FOR 100 WK (STUDY DURATION: 100 WK), Dose: 0, 5, 20 PPM IN DIET FOR 100 WK (STUDY DURATION: 100 WK), Tumor Site: Type of Lesion: HEMATOPOIETIC SYSTEM: LYMPHOMA, UTERUS: HEMANGIODOTHELIOMA) is reported as “active; positive”, the carcinogen call (Species: MOUSE, Strain/Sex: B6C3F1/MALE, Route: ORAL, Dose: 0, 5, 20 PPM IN DIET FOR 100 WK (STUDY DURATION: 100 WK), Dose: 0, 5, 20 PPM IN DIET FOR 100 WK (STUDY DURATION: 100 WK)) is reported as “inactive; negative” and the carcinogen call (Species: MOUSE, Strain/Sex: SWISS/MALE,FEMALE, Route: INTRAPERITONEAL, Dose: 40 MG/KG IN NAOH-SALINE 1/D ON D 1-4 AFTER BIRTH, Tumor Site: Type of Lesion: HEMATOPOIETIC SYSTEM (LEUKEMIA)) is reported as “active; positive”. For the same molecule, the carcinogen call (Species: RAT, Strain/Sex: F344/MALE,FEMALE, Route: ORAL, Dose: 150 MG/KG IN DIET FOR 52 WK, Tumor Site: Type of Lesion: EAR: SQUAMOUS CELL CARCINOMA) was “active; positive” and the carcinogen call (Species: RAT, Strain/Sex: SPRAGUE-DAWLEY/FEMALE, Route: ORAL, Dose: 1.5, 2.2 G/RAT IN DIET (ESTIMATED TOTAL), Tumor Site: Type of Lesion: THYMUS GLAND: LYMPHOMA, EAR (DUCT): SQUAMOUS CELL CARCINOMA) was “active; positive”.
In the case of `Cc1c2ccccc2c(C)c2c3c(ccc12)[C@H](O)[C@@H](O)C=C3`, the carcinogen call (Species: RAT, Strain/Sex: SPRAGUE-DAWLEY/FEMALE (8/GROUP), Route: SUBCUTANEOUS, Dose: 0.1 UMOL 3X A WK FOR 20 DOSES (STUDY DURATION: 38 WK), Tumor Site: Type of Lesion: MAMMARY: ADENOCARCINOMA) is reported as “active; positive (100%); no tumors at injection site” and the carcinogen call (Species: RAT, Strain/Sex: SPRAGUE-DAWLEY/FEMALE (8/GROUP), Route: SUBCUTANEOUS, Dose: 0.2 UMOL 3X A WK FOR 20 DOSES (STUDY DURATION: 30 WK), Tumor Site: Type of Lesion: MAMMARY: ADENOCARCINOMA) is reported as “active; positive (100%); no tumors at injection site”.
`O=S(=O)([O-])[O-].[Ni+2]` was tested, and the carcinogen call (Species: MOUSE, Strain/Sex: B6C3F1/FEMALE, Route: INHALATION, Dose: 0, 0.25, 0.5, 1 MG/M3 6 HR/D 5 D/WK FOR 104 WK (STUDY DURATION: 105 WK), Dose: 0, 0.25, 0.5, 1 MG/M3 6 HR/D 5 D/WK FOR 104 WK (STUDY DURATION: 105 WK)) was “inactive; negative”, the carcinogen call (Species: MOUSE, Strain/Sex: B6C3F1/MALE, Route: INHALATION, Dose: 0, 0.25, 0.5, 1 MG/M3 6 HR/D 5 D/WK FOR 104 WK (STUDY DURATION: 105 WK), Dose: 0, 0.25, 0.5, 1 MG/M3 6 HR/D 5 D/WK FOR 104 WK (STUDY DURATION: 105 WK)) was “inactive; negative” and the carcinogen call (Species: RAT, Strain/Sex: F344/FEMALE, Route: INHALATION, Dose: 0, 0.12, 0.25, 0.5 MG/M3 6 HR/D 5 D/WK FOR 104 WK (STUDY DURATION: 105 WK), Dose: 0, 0.12, 0.25, 0.5 MG/M3 6 HR/D 5 D/WK FOR 104 WK (STUDY DURATION: 105 WK)) was “inactive; negative”. The carcinogen call (Species: RAT, Strain/Sex: F344/MALE, Route: INHALATION, Dose: 0, 0.12, 0.25, 0.5 MG/M3 6 HR/D 5 D/WK FOR 104 WK (STUDY DURATION: 105 WK), Dose: 0, 0.12, 0.25, 0.5 MG/M3 6 HR/D 5 D/WK FOR 104 WK (STUDY DURATION: 105 WK)) was “inactive; negative”, the carcinogen call (Species: RAT, Strain/Sex: F344/MALE, Route: INTRAMUSCULAR, Dose: 0, 63, 83, UMOL/KG GIVEN IN 14 INJECTIONS OVER 26 D (STUDY DURATION; 2 YR), Dose: 0, 63, 83, UMOL/KG GIVEN IN 14 INJECTIONS OVER 26 D (STUDY DURATION; 2 YR)) was “inactive; negative” and the carcinogen call (Species: Rat, Strain/Sex: Fischer 344/Female (50/group), Route: Oral, Dose: 0, 10, 30, 50 mg/kg/day by gavage once daily for 104 wk, Dose: 0, 10, 30, 50 mg/kg/day by gavage once daily for 104 wk) was “inactive; negative”. The carcinogen call (Species: Rat, Strain/Sex: Fischer 344/Male (50/group), Route: Oral, Dose: 0, 10, 30, 50 mg/kg/day by gavage once daily for 104 wk, Dose: 0, 10, 30, 50 mg/kg/day by gavage once daily for 104 wk) was “inactive; negative”.
With `O=C(O)CCl` the carcinogen call (Species: MOUSE, Strain/Sex: B6C3F1/FEMALE, Route: GAVAGE, Dose: 0, 50, 100 MG/KG IN DEIONIZED WATER 5 D/WK FOR 104 WK (STUDY DURATION: 104 WK), Dose: 0, 50, 100 MG/KG IN DEIONIZED WATER 5 D/WK FOR 104 WK (STUDY DURATION: 104 WK)) was “inactive; negative”, the carcinogen call (Species: MOUSE, Strain/Sex: B6C3F1/MALE, Route: GAVAGE, Dose: 0, 50, 100 MG/KG IN DEIONIZED WATER 5 D/WK FOR 104 WK (STUDY DURATION: 104 WK), Dose: 0, 50, 100 MG/KG IN DEIONIZED WATER 5 D/WK FOR 104 WK (STUDY DURATION: 104 WK)) was “inactive; negative” and the carcinogen call (Species: RAT, Strain/Sex: F344/FEMALE, Route: GAVAGE, Dose: 0, 15, 30 MG/KG IN DEIONIZED WATER 5 D/WK FOR 104 WK (STUDY DURATION: 105 WK), Dose: 0, 15, 30 MG/KG IN DEIONIZED WATER 5 D/WK FOR 104 WK (STUDY DURATION: 105 WK)) was “inactive; negative”. For the same molecule, the carcinogen call (Species: RAT, Strain/Sex: F344/MALE, Route: GAVAGE, Dose: 0, 15, 30 MG/KG IN DEIONIZED WATER 5 D/WK FOR 104 WK (STUDY DURATION: 105 WK), Dose: 0, 15, 30 MG/KG IN DEIONIZED WATER 5 D/WK FOR 104 WK (STUDY DURATION: 105 WK)) was “inactive; negative” and the carcinogen call (Species: RAT, Strain/Sex: F344/MALE, Route: ORAL, Dose: O, 0.05, 0.5, 2 G/L IN DRINKING WATER FOR 104 WK, THE 2.5 G/L CONCENTRATION WAS LOWERED TO 1.5 G/L AT 8 WK THEN TO 1 G/L, Dose: O, 0.05, 0.5) was “inactive; negative”.
